{
  "source": "patent US10787452B2",
  "about": "(Vertex Pharmaceuticals Incorporated, priority 2012, dated 2020)",
  "data": [
    {"system": "HCT116 colorectal cancer cells", "assay": "Cisplatin sensitization assay (96 h cell viability MTS);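 note: compound concentration needed to lower the Cisplatin-alone IC50 by a set fold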", "assay_type": "cell-based", "conditions": "96 h MTS, compound plus Cisplatin", "procedure,_shortened": "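Full-matrix combination: compound × cisplatin, 2-fold dilutions from 10 μM top final, co-added; 96 h, 37° C, 5% CO2; MTS read-out after 1 h.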", "values": [
      {"smiles": "Nc1nn2cc(Cl)cnc2c1C(=O)Nc1cnccc1N1CCN(CC(F)(F)F)CC1", "note": "[I-N-67, 2-amino-6-chloro-N-(4-(4-(2,2,2-trifluoroethyl)piperazin-1-yl)pyridin-3-yl)pyrazolo[1,5-a]pyrimidine-3-carboxamide]", "Cisplatin Sensitization Assay": "+++ (Compounds with a Cisplatin sensitization value of <0.02 μM are marked with “+++.”)"},
      {"smiles": "Nc1nn2cc(Cl)cnc2c1C(=O)Nc1cnccc1N1CC[S+]([O-])CC1", "note": "[I-N-68, 2-amino-6-chloro-N-(4-(1-oxidothiomorpholino)pyridin-3-yl)pyrazolo[1,5-a]pyrimidine-3-carboxamide]", "Cisplatin Sensitization Assay": "+++ (Compounds with a Cisplatin sensitization value of <0.02 μM are marked with “+++.”)"},
      {"smiles": "CC(C)(O)C1CCN(c2ccncc2NC(=O)c2c(N)nn3cc(Cl)cnc23)CC1", "note": "[I-N-69, 2-amino-6-chloro-N-(4-(4-(2-hydroxypropan-2-yl)piperidin-1-yl)pyridin-3-yl)pyrazolo[1,5-a]pyrimidine-3-carboxamide]", "Cisplatin Sensitization Assay": "+++ (Compounds with a Cisplatin sensitization value of <0.02 μM are marked with “+++.”)"},
      {"smiles": "Nc1nn2cc(Cl)cnc2c1C(=O)Nc1cnccc1N1CCNC(C(F)(F)F)C1", "note": "(stereo not shown) [I-N-70, 2-amino-6-chloro-N-(4-(3-(trifluoromethyl)piperazin-1-yl)pyridin-3-yl)pyrazolo[1,5-a]pyrimidine-3-carboxamide]", "Cisplatin Sensitization Assay": "++ (Compounds with a Cisplatin sensitization value >0.02 μM but <0.2 μM are marked with “++.”)"},
      {"smiles": "Nc1nn2cc(Cl)cnc2c1C(=O)Nc1cnccc1N1CCN2CCC[C@H]2C1", "note": "[I-N-71, (S)-2-amino-6-chloro-N-(4-(hexahydropyrrolo[1,2-a]pyrazin-2(1H)-yl)pyridin-3-yl)pyrazolo[1,5-a]pyrimidine-3-carboxamide]", "Cisplatin Sensitization Assay": "+++ (Compounds with a Cisplatin sensitization value of <0.02 μM are marked with “+++.”)"},
      {"smiles": "CC1CN(C)CCN1c1ccncc1NC(=O)c1c(N)nn2cc(Cl)cnc12", "note": "(stereo not shown) [I-N-72, 2-amino-6-chloro-N-(4-(2,4-dimethylpiperazin-1-yl)pyridin-3-yl)pyrazolo[1,5-a]pyrimidine-3-carboxamide]", "Cisplatin Sensitization Assay": "+++ (Compounds with a Cisplatin sensitization value of <0.02 μM are marked with “+++.”)"},
      {"smiles": "COC1CCN(c2ccncc2NC(=O)c2c(N)nn3cc(Cl)cnc23)CC1", "note": "[I-N-73, 2-amino-6-chloro-N-(4-(4-methoxypiperidin-1-yl)pyridin-3-yl)pyrazolo[1,5-a]pyrimidine-3-carboxamide]", "Cisplatin Sensitization Assay": "+++ (Compounds with a Cisplatin sensitization value of <0.02 μM are marked with “+++.”)"},
      {"smiles": "COC(=O)C1CCN(c2ccncc2NC(=O)c2c(N)nn3cc(Cl)cnc23)CC1", "note": "[I-N-74, methyl-1-(3-(2-amino-6-chloropyrazolo[1,5-a]pyrimidine-3-carboxamido)pyridin-4-yl)piperidine-4-carboxylate]", "Cisplatin Sensitization Assay": "+++ (Compounds with a Cisplatin sensitization value of <0.02 μM are marked with “+++.”)"},
      {"smiles": "Nc1nn2cc(Cl)cnc2c1C(=O)Nc1cnccc1N1CCn2cncc2C1", "note": "[I-N-75, 2-amino-6-chloro-N-(4-(5,6-dihydroimidazo[1,5-a]pyrazin-7(8H)-yl)pyridin-3-yl)pyrazolo[1,5-a]pyrimidine-3-carboxamide]", "Cisplatin Sensitization Assay": "+++ (Compounds with a Cisplatin sensitization value of <0.02 μM are marked with “+++.”)"},
      {"smiles": "CN1CCN(c2ccncc2NC(=O)c2c(N)nn3cc(C(C)(C)C#N)cnc23)CC1", "note": "[I-N-76, 2-amino-6-(2-cyanopropan-2-yl)-N-(4-(4-methylpiperazin-1-yl)pyridin-3-yl)pyrazolo[1,5-a]pyrimidine-3-carboxamide]", "Cisplatin Sensitization Assay": "+++ (Compounds with a Cisplatin sensitization value of <0.02 μM are marked with “+++.”)"},
      {"smiles": "N#CCc1cnc2c(C(=O)Nc3cnccc3N3CCCC3)c(N)nn2c1", "note": "[I-N-77, 2-amino-6-(cyanomethyl)-N-(4-(pyrrolidin-1-yl)pyridin-3-yl)pyrazolo[1,5-a]pyrimidine-3-carboxamide]", "Cisplatin Sensitization Assay": "+ (Compounds with a Cisplatin sensitization value >0.2 μM but <5 μM are marked with “+.”)"},
      {"smiles": "N#CCc1cnc2c(C(=O)Nc3cnccc3N3CCCCCC3)c(N)nn2c1", "note": "[I-N-79, 2-amino-N-(4-(azepan-1-yl)pyridin-3-yl)-6-(cyanomethyl)pyrazolo[1,5-a]pyrimidine-3-carboxamide]", "Cisplatin Sensitization Assay": "++ (Compounds with a Cisplatin sensitization value >0.02 μM but <0.2 μM are marked with “++.”)"},
      {"smiles": "CN1CCN(c2c(F)cncc2NC(=O)c2c(N)nn3cc(CC#N)cnc23)CC1", "note": "[I-N-80, 2-amino-6-(cyanomethyl)-N-(5-fluoro-4-(4-methylpiperazin-1-yl)pyridin-3-yl)pyrazolo[1,5-a]pyrimidine-3-carboxamide]", "Cisplatin Sensitization Assay": "++ (Compounds with a Cisplatin sensitization value >0.02 μM but <0.2 μM are marked with “++.”)"},
      {"smiles": "N#CCc1cnc2c(C(=O)Nc3cnccc3N3CCOCC3)c(N)nn2c1", "note": "[I-N-81, 2-amino-6-(cyanomethyl)-N-(4-morpholinopyridin-3-yl)pyrazolo[1,5-a]pyrimidine-3-carboxamide]", "Cisplatin Sensitization Assay": "+++ (Compounds with a Cisplatin sensitization value of <0.02 μM are marked with “+++.”)"},
      {"smiles": "CN1CCN(c2ccncc2NC(=O)c2c(N)nn3cc(CC#N)cnc23)CC1", "note": "[I-N-82, 2-amino-6-(cyanomethyl)-N-(4-(4-methylpiperazin-1-yl)pyridin-3-yl)pyrazolo[1,5-a]pyrimidine-3-carboxamide]", "Cisplatin Sensitization Assay": "++ (Compounds with a Cisplatin sensitization value >0.02 μM but <0.2 μM are marked with “++.”)"},
      {"smiles": "N#CCc1cnc2c(C(=O)Nc3cnccc3N3CCC(O)CC3)c(N)nn2c1", "note": "[I-N-83, 2-amino-6-(cyanomethyl)-N-(4-(4-hydroxypiperidin-1-yl)pyridin-3-yl)pyrazolo[1,5-a]pyrimidine-3-carboxamide]", "Cisplatin Sensitization Assay": "++ (Compounds with a Cisplatin sensitization value >0.02 μM but <0.2 μM are marked with “++.”)"},
      {"smiles": "N#CCc1cnc2c(C(=O)Nc3cnccc3N3CCCCC3)c(N)nn2c1", "note": "[I-N-84, 2-amino-6-(cyanomethyl)-N-(4-(piperidin-1-yl)pyridin-3-yl)pyrazolo[1,5-a]pyrimidine-3-carboxamide]", "Cisplatin Sensitization Assay": "+++ (Compounds with a Cisplatin sensitization value of <0.02 μM are marked with “+++.”)"},
      {"smiles": "CN1CCN(c2c(Cl)cncc2NC(=O)c2c(N)nn3cc(F)cnc23)CC1", "note": "[I-N-85, 2-amino-N-(5-chloro-4-(4-methylpiperazin-1-yl)pyridin-3-yl)-6-fluoropyrazolo[1,5-a]pyrimidine-3-carboxamide]", "Cisplatin Sensitization Assay": "++ (Compounds with a Cisplatin sensitization value >0.02 μM but <0.2 μM are marked with “++.”)"},
      {"smiles": "Nc1nn2cc(Cl)cnc2c1C(=O)Nc1cnccc1N1CCC(N)CC1", "note": "[I-N-86, 2-amino-N-(4-(4-aminopiperidin-1-yl)pyridin-3-yl)-6-chloropyrazolo[1,5-a]pyrimidine-3-carboxamide]", "Cisplatin Sensitization Assay": "+++ (Compounds with a Cisplatin sensitization value of <0.02 μM are marked with “+++.”)"},
      {"smiles": "CNC1CCN(c2ccncc2NC(=O)c2c(N)nn3cc(Cl)cnc23)CC1", "note": "[I-N-87, 2-amino-6-chloro-N-(4-(4-(methylamino)piperidin-1-yl)pyridin-3-yl)pyrazolo[1,5-a]pyrimidine-3-carboxamide]", "Cisplatin Sensitization Assay": "++ (Compounds with a Cisplatin sensitization value >0.02 μM but <0.2 μM are marked with “++.”)"},
      {"smiles": "Nc1nn2cc(Cl)cnc2c1C(=O)Nc1cnccc1N1CCNCC1", "note": "[I-N-88, 2-amino-6-chloro-N-(4-(piperazin-1-yl)pyridin-3-yl)pyrazolo[1,5-a]pyrimidine-3-carboxamide]", "Cisplatin Sensitization Assay": "++ (Compounds with a Cisplatin sensitization value >0.02 μM but <0.2 μM are marked with “++.”)"},
      {"smiles": "N#CCc1cnc2c(C(=O)Nc3cnccc3N3CCNCC3)c(N)nn2c1", "note": "[I-N-89, 2-amino-6-(cyanomethyl)-N-(4-(piperazin-1-yl)pyridin-3-yl)pyrazolo[1,5-a]pyrimidine-3-carboxamide]", "Cisplatin Sensitization Assay": "++ (Compounds with a Cisplatin sensitization value >0.02 μM but <0.2 μM are marked with “++.”)"},
      {"smiles": "N#CCc1cnc2c(C(=O)Nc3cnccc3N3CCOC(CN)C3)c(N)nn2c1", "note": "(stereo not shown) [I-N-90, 2-amino-N-(4-(2-(aminomethyl)morpholino)pyridin-3-yl)-6-(cyanomethyl)pyrazolo[1,5-a]pyrimidine-3-carboxamide]", "Cisplatin Sensitization Assay": "+ (Compounds with a Cisplatin sensitization value >0.2 μM but <5 μM are marked with “+.”)"},
      {"smiles": "NCC1CCN(c2ccncc2NC(=O)c2c(N)nn3cc(Cl)cnc23)CC1", "note": "[I-N-91, 2-amino-N-(4-(4-(aminomethyl)piperidin-1-yl)pyridin-3-yl)-6-chloropyrazolo[1,5-a]pyrimidine-3-carboxamide]", "Cisplatin Sensitization Assay": "++ (Compounds with a Cisplatin sensitization value >0.02 μM but <0.2 μM are marked with “++.”)"},
      {"smiles": "CN(C)C1CN(C2CCN(c3ccncc3NC(=O)c3c(N)nn4cc(Cl)cnc34)CC2)C1", "note": "[I-N-94, 2-amino-6-chloro-N-(4-(4-(3-(dimethylamino)azetidin-1-yl)piperidin-1-yl)pyridin-3-yl)pyrazolo[1,5-a]pyrimidine-3-carboxamide]", "Cisplatin Sensitization Assay": "+++ (Compounds with a Cisplatin sensitization value of <0.02 μM are marked with “+++.”)"},
      {"smiles": "COC1CCN(C2CCN(c3ccncc3NC(=O)c3c(N)nn4cc(Cl)cnc34)CC2)C1", "note": "(stereo not shown) [I-N-95, 2-amino-6-chloro-N-(4-(4-(3-methoxypyrrolidin-1-yl)piperidin-1-yl)pyridin-3-yl)pyrazolo[1,5-a]pyrimidine-3-carboxamide]", "Cisplatin Sensitization Assay": "++ (Compounds with a Cisplatin sensitization value >0.02 μM but <0.2 μM are marked with “++.”)"},
      {"smiles": "CN1CCN(C2CCN(c3ccncc3NC(=O)c3c(N)nn4cc(Cl)cnc34)CC2)CC1", "note": "[I-N-97, 2-amino-6-chloro-N-(4-(4-(4-methylpiperazin-1-yl)piperidin-1-yl)pyridin-3-yl)pyrazolo[1,5-a]pyrimidine-3-carboxamide]", "Cisplatin Sensitization Assay": "+++ (Compounds with a Cisplatin sensitization value of <0.02 μM are marked with “+++.”)"},
      {"smiles": "Nc1nn2cc(Cl)cnc2c1C(=O)Nc1cnccc1N1CCC(N2CC[C@@H](F)C2)CC1", "note": "[I-N-98, (R)-2-amino-6-chloro-N-(4-(4-(3-fluoropyrrolidin-1-yl)piperidin-1-yl)pyridin-3-yl)pyrazolo[1,5-a]pyrimidine-3-carboxamide]", "Cisplatin Sensitization Assay": "+++ (Compounds with a Cisplatin sensitization value of <0.02 μM are marked with “+++.”)"}
    ]}
  ]
}
